Tests used:
[1] = test system: A431 skin cancer cell line; experiment: Cancer cell growth inhibition, A431 (SRB); details: Homo sapiens, A-431, 72 h, read-out: ID50 (nM) A431
[2] = test system: SK-Br3 breast cancer cell line; experiment: Cancer cell growth inhibition, SK-Br3 (SRB); details: Homo sapiens, SK-BR-3, 72 h, read-out: ID50 (nM) SK-Br3
[3] = test system: H1975 lung cancer cell line; experiment: Cancer cell growth inhibition, H1975 (celltiter); details: Homo sapiens, NCI-H1975, 48 h, read-out: IC50 (nM) H1975
Procedure: The medium was removed from each well of the 96-well plate.
In case of H1975, the cells were diluted with a culture medium to a concentration of 50,000 cells/ml. 100 μl of the diluted cell solution was added to each well of a 96-well plate, and, after 1 day, was washed with a mixture of RPMI, 0.1% FBS and 1% penicillin-streptomycin (PS), followed by replacement of the medium. The plate was allowed to be kept overnight and be treated to various concentrations under the same medium condition for 48 hrs. Similarly to an MTT assay, 15 μl of a celltiter one shot solution (Promega) was added to each well, which was incubated for 2 to 3 hrs, and, then, the absorbance at 490 nm was determined.

[4] = test system: SW-620 colon/rectal cancer cell line; experiment: Cancer cell growth inhibition, SW-620 (SRB); details: Homo sapiens, SW-620, 72 h, read-out: IC50 (nM) SW-620
EGFR T790M kinase = EGFR T790M kinase (Homo sapiens, UniProt P00533, T790M); experiment: Inhibition of EGFR mutant enzyme (T790M); details: read-out: IC50 (nM) T790M; EGFR T790M kinase
Chain of EGFR T790M kinase (P00533 25-1210 T790M): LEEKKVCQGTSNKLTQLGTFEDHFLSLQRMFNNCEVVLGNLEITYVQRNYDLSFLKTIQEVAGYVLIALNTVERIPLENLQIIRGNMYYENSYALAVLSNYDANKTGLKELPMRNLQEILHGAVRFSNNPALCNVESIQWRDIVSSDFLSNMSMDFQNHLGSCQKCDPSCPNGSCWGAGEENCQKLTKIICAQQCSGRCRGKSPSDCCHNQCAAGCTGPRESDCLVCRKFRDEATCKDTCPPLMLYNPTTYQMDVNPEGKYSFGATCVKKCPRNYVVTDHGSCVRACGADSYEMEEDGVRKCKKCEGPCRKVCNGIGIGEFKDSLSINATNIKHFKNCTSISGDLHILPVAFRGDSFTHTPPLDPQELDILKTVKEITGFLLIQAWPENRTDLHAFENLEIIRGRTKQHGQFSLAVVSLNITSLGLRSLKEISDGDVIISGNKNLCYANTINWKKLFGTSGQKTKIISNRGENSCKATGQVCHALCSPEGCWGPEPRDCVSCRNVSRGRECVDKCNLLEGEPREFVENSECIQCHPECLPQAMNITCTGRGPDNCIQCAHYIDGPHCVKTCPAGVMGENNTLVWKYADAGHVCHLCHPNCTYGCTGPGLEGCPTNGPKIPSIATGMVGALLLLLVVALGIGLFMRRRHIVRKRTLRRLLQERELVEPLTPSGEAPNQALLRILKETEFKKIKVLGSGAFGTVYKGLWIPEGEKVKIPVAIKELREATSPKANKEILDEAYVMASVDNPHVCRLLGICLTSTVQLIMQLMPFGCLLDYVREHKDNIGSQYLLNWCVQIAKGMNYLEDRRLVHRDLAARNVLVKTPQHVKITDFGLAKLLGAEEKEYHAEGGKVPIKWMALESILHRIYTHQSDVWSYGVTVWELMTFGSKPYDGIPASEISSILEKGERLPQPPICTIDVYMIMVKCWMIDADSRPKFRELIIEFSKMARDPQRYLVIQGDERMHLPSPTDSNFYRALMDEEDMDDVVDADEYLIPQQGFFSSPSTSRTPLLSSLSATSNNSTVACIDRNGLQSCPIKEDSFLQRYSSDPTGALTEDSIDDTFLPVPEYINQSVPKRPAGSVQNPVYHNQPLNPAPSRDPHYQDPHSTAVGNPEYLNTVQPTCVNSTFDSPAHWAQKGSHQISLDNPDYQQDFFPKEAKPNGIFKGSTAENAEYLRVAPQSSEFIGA

| SMILES | IC50 [1] [nM] | IC50 [2] [nM] | IC50 [3] [nM] | IC50 [4] [nM] | IC50 (EGFR T790M kinase) [nM] |
| --- | --- | --- | --- | --- | --- |
| COc1cc2ncnc(Nc3cccc(Cl)c3F)c2cc1OC1CCN(C(=O)CO)CC1 [Ex 1*] | 39 | 293 | > 1000 | – | – |
| C=CC(=O)N1CC(Oc2cc3c(Nc4ccc(Cl)c(Cl)c4F)ncnc3cc2OC)C1 [Example 24, 1-(3-(4-(3,4-dichloro-2-fluorophenylamino)-7-methoxyquinazolin-6-yloxy)azetidin-1-yl)pro-2-pen-1-one] | – | 0.6 | – | > 5000 | – |
| C=CC(=O)N1CCC(Oc2cc3c(Nc4cccc(C)c4)ncnc3cc2OC)CC1 [Example 41, 1-(4-(4-(m-toluidino)-7-methoxyquinazolin-6-yloxy)piperidin-1-yl)pro-2-pen-1-one] | 1 | 2 | 236 | – | 9.3 |
| C=CC(=O)N1CCC(Oc2cc3c(Nc4cccc(C(F)(F)F)c4)ncnc3cc2OC)CC1 [Example 58, 1-(4-(7-methoxy-4-(3-(trifluoromethyl)phenylamino)quinazolin-6-yloxy)piperidin-1-yl)pro-2-pen-1-one] | 58 | 20 | – | > 5000 | 16.2 |
| C=CC(=O)N1CCC(Oc2cc3c(Nc4ccc(F)c(Cl)c4)ncnc3cc2OC)CC1 [Example 57, 1-(4-(4-(3-chloro-4-fluorophenylamino)-7-methoxyquinazolin-6-yloxy)piperidin-1-yl)pro-2-pen-1-one] | 17 | 2 | 16 | > 5000 | – |
| C=CC(=O)N1CCC(Oc2cc3c(Nc4ccc(Br)c(C)c4)ncnc3cc2OC)CC1 [Example 39, 1-(4-(4-(4-bromo-3-methylphenylamino)-7-methoxyquinazolin-6-yloxy)piperidin-1-yl)pro-2-pen-1-one] | 6 | 9 | 48 | – | 7.6 |
| C=CC(=O)N1CC[C@H](Oc2cc3c(Nc4ccc(F)c(Cl)c4F)ncnc3cc2OC)C[C@H]1C(=O)NCCSC [Example 128, (2S,4S)-1-acryloyl-4-(4-(3-chloro-2,4-difluorophenylamino)-7-methoxyquinazolin-6-yloxy)-N-(2-(methylthio)ethyl)piperidin-2-carboxamide] | 2.4 | 5 | 5 | > 5000 | 1.4 |
| C=CC(=O)N1CC[C@H](Oc2cc3c(Nc4ccc(F)c(Cl)c4F)ncnc3cc2OC)C[C@H]1C(=O)NCCN(C)C [Example 130, (2S,4S)-1-acryloyl-4-(4-(3-chloro-2,4-difluorophenylamino)-7-methoxyquinazolin-6-yloxy)-N-(2-(dimethylamino)ethyl)piperidin-2-carboxamide] | 5.7 | 0.9 | 30 | > 5000 | 6.6 |
| COc1cc2ncnc(Nc3ccc(F)c(Cl)c3F)c2cc1OC1CN(C(=O)/C=C\Cl)C1 [Example 32, (Z)-3-chloro-1-(3-(4-(3-chloro-2,4-difluorophenylamino)-7-methoxyquinazolin-6-yloxy)azetidin-1-yl)pro-2-pen-1-one] | 2.4 | 2.2 | 19 | – | – |
| C=CC(=O)N1CCC(Oc2cc3c(Nc4cccc(C=C)c4)ncnc3cc2OC)CC1 [Example 73, 1-(4-(7-methoxy-4-(3-vinylphenylamino)quinazolin-6-yloxy)piperidin-1-yl)pro-2-pen-1-one] | 1.9 | 1.2 | 27 | > 5000 | 3 |
| C=CC(=O)N1CCC(Oc2cc3c(Nc4cccc(Br)c4)ncnc3cc2OC)CC1 [Example 42, 1-(4-(4-(3-bromophenylamino)-7-methoxyquinazolin-6-yloxy)piperidin-1-yl)pro-2-pen-1-one] | 1 | 0.7 | 96 | – | 7.1 |
| C=CC(=O)N1CC[C@H](Oc2cc3c(Nc4ccc(F)c(Cl)c4F)ncnc3cc2OC)C[C@H]1C(=O)NCCS(C)(=O)=O [Example 129, (2S,4S)-1-acryloyl-4-(4-(3-chloro-2,4-difluorophenylamino)-7-methoxyquinazolin-6-yloxy)-N-(2-(methylsulfonyl)ethyl)piperidin-2-carboxamide] | 2.2 | 0.6 | 50.4 | – | 3 |
| C=C(NC(C)=O)C(=O)N1CC(Oc2cc3c(Nc4ccc(F)c(Cl)c4F)ncnc3cc2OC)C1 [Example 31, N-(3-(3-(4-(3-chloro-2,4-difluorophenylamino)-7-methoxyquinazolin-6-yloxy)azetidin-1-yl)-3-oxopro-1-en-2-yl)acetamide] | 3.1 | 2.5 | 50 | – | – |
| CS(=O)(=O)CCNCc1ccc(-c2ccc3ncnc(Nc4ccc(OCc5cccc(F)c5)c(Cl)c4)c3c2)o1 [Lapatinib, reference compound] | 80 | 40 | – | > 5000 | – |
| C=C(CN(C)C)C(=O)N1CC(Oc2cc3c(Nc4ccc(F)c(Cl)c4F)ncnc3cc2OC)C1 [Example 104, 1-(3-(4-(3-chloro-2,4-difluorophenylamino)-7-methoxyquinazolin-6-yloxy)azetidin-1-yl)-2-((dimethylamino)methyl)prop-2-en-1-one] | 41 | 1.5 | 11 | > 5000 | 2 |
| C=CC(=O)N1CC[C@H](Oc2cc3c(Nc4ccc(Cl)c(Cl)c4F)ncnc3cc2OC)C1 [Example 8, 1-((3S)-3-(4-(3,4-dichloro-2-fluorophenylamino)-7-methoxyquinazolin-6-yloxy)pyrrolidin-1-yl)pro-2-pen-1-one] | – | – | – | > 5000 | – |
| CN(C)C/C=C/C(=O)Nc1cc2c(Nc3ccc(F)c(Cl)c3)ncnc2cc1O[C@H]1CCOC1 [BIBW2992, reference compound] | – | – | – | 2640 | – |
| C=CC(=O)N1CCC(Oc2cc3c(Nc4cccc(Cl)c4)ncnc3cc2OC)CC1 [Example 43, 1-(4-(4-(3-chlorophenylamino)-7-methoxyquinazolin-6-yloxy)piperidin-1-yl)pro-2-pen-1-one] | – | 0.7 | – | > 5000 | – |
| C=CC(=O)N1CC[C@@H](Oc2cc3c(Nc4ccc(F)c(Cl)c4F)ncnc3cc2OC)C[C@@H]1C(=O)NC [Example 136, (2R,4R)-1-acryloyl-4-(4-(3-chloro-2,4-difluorophenylamino)-7-methoxyquinazolin-6-yloxy)-N-methylpiperidin-2-carboxamide] | 2.9 | 0.2 | 2.6 | > 5000 | 0.9 |
| C=CC(=O)N1CC(Oc2cc3c(Nc4ccc(F)c(Cl)c4)ncnc3cc2OC)C1 [Example 25, 1-(3-(4-(3-chloro-4-fluorophenylamino)-7-methoxyquinazolin-6-yloxy)azetidin-1-yl)pro-2-pen-1-one] | – | 0.4 | – | > 5000 | – |
| C=CC(=O)N1CC[C@@H](Oc2cc3c(Nc4ccc(Cl)c(Cl)c4F)ncnc3cc2OC)C[C@@H]1C(N)=O [Example 139, (2R,4R)-1-acryloyl-4-(4-(3,4-dichloro-2-fluorophenylamino)-7-methoxyquinazolin-6-yloxy)piperidin-2-carboxamide] | 0.8 | 1.1 | 1.1 | > 5000 | – |
| C=CC(=O)N1CCC(Oc2cc3c(Nc4ccc(O)c(F)c4)ncnc3cc2OC)CC1 [Example 79, 1-(4-(4-(3-fluoro-4-hydroxyphenylamino)-7-methoxyquinazolin-6-yloxy)piperidin-1-yl)prop-2-en-1-one] | 129 | 37 | – | – | – |
| C=CC(=O)N1CCC(Oc2cc3c(Nc4ccc(O)c(Cl)c4)ncnc3cc2OC)CC1 [Example 78, 1-(4-(4-(3-chloro-4-hydroxyphenylamino)-7-methoxyquinazolin-6-yloxy)piperidin-1-yl)pro-2-pen-1-one] | 109 | 65 | – | – | – |
| C=CC(=O)N1CCC(Oc2cc3c(Nc4cccc(CCl)c4)ncnc3cc2OC)CC1 [Example 77, 1-(4-(4-(3-(chloromethyl)phenylamino)-7-methoxyquinazolin-6-yloxy)piperidin-1-yl)pro-2-pen-1-one] | 26 | 7 | – | – | – |
| C=CC(=O)N1CCC(Oc2cc3c(Nc4cccc(C(F)(F)F)c4F)ncnc3cc2OC)CC1 [Example 65, 1-(4-(4-(2-fluoro-3-(trifluoromethyl)phenylamino)-7-methoxyquinazolin-6-yloxy)piperidin-1-yl)pro-2-pen-1-one] | 11 | 15 | – | – | – |
| C=CC(=O)N1CC(Oc2cc3c(Nc4ccc(F)c(Cl)c4F)ncnc3cc2O)C1 [Example 115, 1-(3-(4-(3-chloro-2,4-difluorophenylamino)-7-hydroxyquinazolin-6-yloxy)azetidin-1-yl)prop-2-en-1-one] | 381 | 93 | – | – | – |
| C=CC(=O)N1CCC(Oc2cc3c(Nc4ccc5c(c4)CCC5)ncnc3cc2OC)CC1 [Example 49, 1-(4-(4-(2,3-dihydro-1H-inden-5-ylamino)-7-methoxyquinazolin-6-yloxy)piperidin-1-yl)pro-2-pen-1-one] | 29 | 45 | – | – | – |
| C#Cc1cccc(Nc2ncnc3cc(OC)c(OC4CCN(C(=O)C=C)CC4)cc23)c1 [Example 37, 1-(4-(4-(3-ethynylphenylamino)-7-methoxyquinazolin-6-yloxy)piperidin-1-yl)pro-2-pen-1-one] | 52 | 79 | – | – | – |

Reference: patent publication US8188102B2, “Amide derivative for inhibiting the growth of cancer cells” (Hanmi Holdings Co., Ltd., priority 2007, dated 2012)
